From paper PMC2410273, “Pharmacokinetic behaviour of the chemoprotectants BNP7787 and mesna after an i.v. bolus injection in rats” (British Journal of Cancer, 2004)
Read-outs that look alike come from different tables or passages of the source.

How the values were obtained:
[1] = design: method as in Hausheer et al, 1998; conditions: rats, ref Hausheer et al, 1998; cited from earlier work
[2] = test system: intestinal and renal epithelial cells; design: method as in earlier work; conditions: isolated cells, via facilitated transport, ref Ormstad and Uehara, 1982, Ormstad et al, 1983, Brock et al, 1984, Ormstad and Ohno; cited from earlier work
[3] = design: method as in Hausheer et al, 1998; conditions: dogs, ref Hausheer et al, 1998; cited from earlier work
[4] = test system: cisplatin-induced nephrotoxicity; design: method as in Hausheer et al, 1998; conditions: dogs; plasma creatinine, BUN, renal histopathology; ref Hausheer et al, 1998; cited from earlier work
[5] = test system: antitumour activity of cisplatin; design: method as in Boven et al, 2002; conditions: tumour-bearing nude mice; given preceding cisplatin; ref Boven et al, 2002; cited from earlier work
[6] = design: method as in Verschraagen et al, in press; conditions: cancer patients, ref Verschraagen et al, in press, cited from earlier work
[7] = test system: antitumour activity of cisplatin; design: method as in Hausheer et al, 1998; conditions: tumour-bearing rats; given preceding cisplatin; ref Hausheer et al, 1998; cited from earlier work
[8] = test system: cisplatin-induced nephrotoxicity; design: method as in Hausheer et al, 1998; conditions: rats, ref Hausheer et al, 1998, cited from earlier work
[9] = Pharmacokinetics and tissue distribution of BNP7787 and mesna after i.v. bolus of BNP7787 or mesna in WARD tumour-bearing rats; assay type: in vivo, Fischer rats; conditions: for AUC^5−60 in plasma, fold higher in rats than in nude mice: after equivalent dose of 1000 mg kg^−1 BNP7787, mouse data ref Boven et al, 2002; for AUC, fold lower than the corresponding value in kidney: all other sampled tissue compartments, after either BNP7787 or mesna; for Kp: 1000 mg/kg
Excerpt: The protocol was approved by the ethics committee for animal experiments of the Vrije Universiteit medical center in Amsterdam, The Netherlands. This committee strictly adheres to the standards required by the UKCCCR for the welfare of animals in neoplasia ([Workman et al, 1998]). Female Fischer rats (144–171 g) were obtained from Harlan (Indianapolis, USA) and were implanted subcutaneously in both flanks with fragments (2–3 mm diameter) of the WARD colorectal tumour ([Cao et al, 1994]). The pharmacokinetic study started at the time the tumours had reached a mean size of approximately 600 mm^3 (range 250–900 mm^3).
Tumour-bearing rats were treated with 1000 mg kg^−1 BNP7787 i.v. or 1000 mg kg^−1 mesna i.v. injected in the tail vein. Approximately 5 min before sample collection, the rats were anaesthetised by i.p. injection with 0.1 ml of a mixture of 75 mg ml^−1 ketamine plus 5 mg ml^−1 xylazine per 100 g weight. Blood was obtained by heart puncture at 0, 5, 15, 30, 45, 60, 90 and 150 min after i.v. administration of BNP7787 or mesna. Thereafter, the kidney, liver and tumour were removed by surgical dissection. In addition, at time points 0 and 30 min, skeletal muscle attached to the thighbone was also collected. At each time point three rats were killed.
Immediately after collection, the blood samples, which were collected in cooled EDTA-containing tubes (potassium-EDTA 1.6 mg EDTA ml^−1 blood; Sarstedt, Germany), were centrifuged at 4°C for 10 min at 4000 g. Plasma was separated and immediately deproteinised by adding one volume of sulphuric acid (0.33 M) and one volume of sodium hexametaphosphate (5 g/100 ml). After vortexing and centrifugation for 2 min at 12 000 g, the supernatant was stored in aliquots at −80°C until analysis. One volume of RBCs was washed with 1 volume of cold phosphate-buffered saline (PBS) of pH 7.4 containing sodium phosphate (10 mM) and NaCl (140 mM; Hospital Pharmacy, VUmc, Amsterdam, The Netherlands). This mixture was centrifuged for 2 min, 12 000 g at 4°C. After removing the PBS, the remaining RBCs were stored in liquid nitrogen until further processing.
The kidney, liver, tumour and skeletal muscle were washed with cold PBS before storage in liquid nitrogen. After collection of all the samples at the different time points, tissue homogenates of kidney, liver, tumour and skeletal muscle were prepared by pulverisation using a Braun Micro-dismembrator (Salm and Kipp; Breukelen, The Netherlands) according to the method described by [Peters et al (1986)]. An appropriate volume of aqueous EDTA (1 g l^−1) was added to the RBC and tissue homogenates to obtain a concentration of 100 mg tissue (wet weight) per ml. After sonification (10 min) and vortexing (10 min), the samples were subsequently deproteinised by adding 1 volume of cold sulphuric acid (0.33 M) and 1 volume of cold sodium hexametaphosphate (5 g/100 ml). After thorough vortexing and centrifugation (2 min at 8500 g at 4°C), the supernatants were stored in aliquots at −80° until analysis.
BNP7787 and mesna concentrations were determined selectively in one run using micro-HPLC with a dual electrochemical detector (dual ECD) ([Verschraagen et al, 2003b]). Briefly, citrate-NaOH buffer (40 μl of a mixture of 1 ml 5.0 M sodium hydroxide and 4 ml 0.5 M tri-sodium citrate buffer, pH 3.0) was added to 200 μl of deproteinised plasma, RBC or tissue sample, and the sample was injected into the micro-HPLC system which consisted of a Phenomenex C18 guard column (10 μm, 4 × 2.0 mm) and a Phenomenex Prodigy C18 ODS-3 column (5 μm, 100 × 1.0 mm; Bester, Amstelveen, The Netherlands).

[10] = test system: cisplatin-induced toxicity; design: method as in Boven et al, 2002; conditions: nude mice; in the presence of 1000 mg kg^−1 BNP7787; ref Boven et al, 2002; cited from earlier work
[11] = design: method as in Ormstad et al, 1983; conditions: in vitro, ref Ormstad et al, 1983, cited from earlier work
[12] = design: method as in Boven et al, 2002; conditions: nude mice; after BNP7787 administration; ref Boven et al, 2002; cited from earlier work
[13] = 30 min after 1000 mg kg^−1 BNP7787 i.v.
[14] = 30 min after 1000 mg kg^−1 mesna i.v.
[15] = RBC, each 1000 mg kg^−1 i.v., P<0.01
[16] = after 1000 mg kg^−1 BNP7787 i.v., RBC
[17] = after 1000 mg kg^−1 BNP7787 i.v., kidney
[18] = after 1000 mg kg^−1 BNP7787 i.v., liver
[19] = after 1000 mg kg^−1 BNP7787 i.v., plasma
[20] = after 1000 mg kg^−1 BNP7787 i.v., tumour
[21] = after 1000 mg kg^−1 mesna i.v., kidney
[22] = after 1000 mg kg^−1 mesna i.v., plasma
[23] = after 1000 mg kg^−1 mesna i.v., tumour
[24] = female, Fischer, rat, all tissue compartments other than kidney / plasma, iv, after 1000 mg kg^−1 mesna i.v., all tissue compartments other than kidney, read-out: tissue–plasma AUC ratio
[25] = female, Fischer, rat, kidney / plasma, iv, after 1000 mg kg^−1 BNP7787 i.v., read-out: kidney–plasma AUC ratio
[26] = female, Fischer, rat, kidney / plasma, iv, after 1000 mg kg^−1 mesna i.v., read-out: kidney–plasma AUC ratio
[27] = female, Fischer, rat, liver / plasma, iv, after 1000 mg kg^−1 BNP7787 i.v., read-out: liver–plasma AUC ratio
[28] = female, Fischer, rat, red blood cells / plasma, iv, after 1000 mg kg^−1 BNP7787 i.v., read-out: RBC–plasma AUC ratio
[29] = female, Fischer, rat, tumour / plasma, iv, after 1000 mg kg^−1 BNP7787 i.v., read-out: tumour–plasma AUC ratio
[30] = plasma, each 1000 mg kg^−1 i.v., P<0.01

O=S(=O)([O-])CCSSCCS(=O)(=O)[O-].[Na+].[Na+] [BNP7787, disodium 2,2′-dithio-bis-ethane sulphonate]
nontoxic dose after i.v. administration [1]: 4000 mg/kg | cellular uptake [2]: preferentially taken up in intestinal and renal epithelial cells | nontoxic dose after i.v. administration [3]: 2000 mg/kg | protection against cisplatin-induced nephrotoxicity [4]: completely protected | effect on antitumour activity of cisplatin [5]: did not reduce the antitumour activity of cisplatin | pharmacokinetic interaction with intact cisplatin ([6]; BNP7787 18.4–41 g m^−2): no mutual pharmacokinetic interaction | relatively nontoxic dose ([6]; phase I, BNP7787 preceding cisplatin): ≤ 41 g m^−2 | effect on antitumour activity of cisplatin [7]: did not reduce the antitumour activity of cisplatin | cisplatin dose (mg kg^−1) tolerated when preceded by BNP7787 ([8]; 750 or 1500 mg kg^−1 BNP7787 i.v.): could be safely increased from 6 to 9 | protection against cisplatin-induced nephrotoxicity ([8]; plasma creatinine, BUN, renal histopathology): completely protected | mean concentration (±s.d.) in skeletal muscle [9, 13]: 36.9 ± 26.0 nmol/g | mean concentration (±s.d.) in skeletal muscle [9, 14]: 30.3 ± 17.6 nmol/g | AUC (printed: concentration) after BNP7787 administration compared with after mesna administration [9, 15]: six-fold lower | AUC of BNP7787, fold lower than AUC of mesna [9, 16]: 11.4 fold | time detectable [9, 16]: 30 min | time of highest concentrations / peak levels ([9]; after 1000 mg kg^−1 BNP7787 i.v., all compartments): 5 min | AUC of BNP7787, fold lower than AUC of mesna [9, 17]: 2.7 fold | time detectable [9, 17]: 90 min | AUC of BNP7787, fold lower than AUC of mesna [9, 18]: 39.8 fold | time detectable [9, 18]: 30 min | AUC of BNP7787 relative to AUC of mesna [9, 19]: almost two-fold higher | time detectable [9, 19]: 90 min | AUC of BNP7787, fold lower than AUC of mesna [9, 20]: 5.1 fold | time detectable [9, 20]: 45 min | time detectable [9, 21]: at least 150 min | time detectable [9, 22]: at least 150 min | time detectable [9, 23]: at least 150 min | AUC^5−60 in plasma, fold higher in rats than in nude mice [9]: 2.7 fold | AUC, fold lower than the corresponding value in kidney [9]: at least 5.5 fold | Kp [9, 24]: < 0.3 | Kp [9, 25]: 0.9 | Kp [9, 26]: 2.1 | Kp [9, 27]: 0.01 | Kp [9, 28]: 0.01 | Kp [9, 29]: 0.08 | AUC after BNP7787 administration compared with after mesna administration ([9]; kidney, each 1000 mg kg^−1 i.v.): smaller, but not significant difference | AUC after BNP7787 administration compared with after mesna administration ([9]; liver, each 1000 mg kg^−1 i.v.): not significantly different | AUC after BNP7787 administration compared with after mesna administration [9, 30]: more than three-fold higher | AUC after BNP7787 administration compared with after mesna administration ([9]; tumour, each 1000 mg kg^−1 i.v.): not significantly different | weight loss on cisplatin dose increase from 5 to 8 mg kg^−1 [10]: weight loss increased | reduction of BNP7787 into mesna ([11]; cytosol fraction of the kidney cortex): large reduction | reduction of BNP7787 into mesna ([11]; plasma): very limited

O=S(=O)(O)CCS [mesna, sodium 2-mercapto ethane sulphonate]
AUC of mesna in plasma as % of the AUC of BNP7787 [12]: approximately 24% | effect on antitumour activity of cisplatin [5]: reduce the specific growth delay | effect on antitumour activity of cisplatin [7]: can reduce the number of complete and partial tumour remissions | mean concentration (±s.d.) in skeletal muscle [9, 13]: 355.1 ± 113.0 nmol/g | mean concentration (±s.d.) in skeletal muscle [9, 14]: 665.1 ± 209.1 nmol/g | AUC, fold lower after BNP7787 than after mesna administration [9, 15]: 6.2 fold | time detectable [9, 16]: up to 90 min | time detectable [9, 17]: at least 150 min | time detectable [9, 18]: up to 90 min | time detectable [9, 19]: up to 90 min | time detectable [9, 20]: at least 150 min | time detectable ([9]; after 1000 mg kg^−1 mesna i.v., RBC): at least 150 min | time detectable [9, 21]: at least 150 min | time detectable ([9]; after 1000 mg kg^−1 mesna i.v., liver): at least 150 min | time detectable [9, 22]: at least 150 min | AUC of mesna relative to AUC of BNP7787 ([9]; after 1000 mg kg^−1 mesna i.v., plasma and all tissues sampled): at least seven-fold higher | time detectable [9, 23]: at least 150 min | AUC^5−60 in plasma, fold higher in rats than in nude mice [9]: approximately 5.2 fold | AUC of mesna in tumour relative to AUC of mesna in plasma ([9]; after mesna administration): at least three-fold lower | AUC, fold lower than the corresponding value in kidney [9]: at least 5.5 fold | Kp [9, 24]: < 0.3 | Tmax ([9]; female, Fischer, rat, iv, after 1000 mg kg^−1 BNP7787 i.v., liver, read-out: time of maximal concentration in liver (converted)): 5 min | Kp [9, 25]: 4.5 | Kp [9, 26]: 1.7 | Kp [9, 27]: 0.5 | Kp [9, 28]: 0.1 | Kp [9, 29]: 0.7 | AUC, fold lower after BNP7787 than after mesna administration ([9]; kidney, each 1000 mg kg^−1 i.v., P<0.01): 1.9 fold | AUC after BNP7787 administration compared with after mesna administration ([9]; liver, each 1000 mg kg^−1 i.v.): similar | AUC after BNP7787 administration compared with after mesna administration [9, 30]: five-fold lower | AUC of mesna in plasma as % of the AUC of BNP7787 ([9]; rats, after BNP7787 administration): approximately 50% | AUC, fold lower after BNP7787 than after mesna administration ([9]; tumour, each 1000 mg kg^−1 i.v., not statistically significant): 2.1 fold
